Source: the supplement of paper PMC10307832

Legend:
Assay in all cases: relative viability (nuclei count vs DMSO), 5 days (fraction); higher = more cells survive
[1] = compound: COc1cc2nccc(Oc3ccc(NC(=O)C4(C(=O)Nc5ccc(F)cc5)CC4)cc3)c2cc1OC [Cabozantinib] + CC(=O)Nc1cccc(-n2c(=O)n(C3CC3)c(=O)c3c(Nc4ccc(I)cc4F)n(C)c(=O)c(C)c32)c1 [Trametinib] (partner 0.02 µM)
Procedure, shortened: (§1)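 Lung cancer cell lines were pin-tool dosed in 1536-well plates on the day after seeding, with either a lone drug or a fixed anchor-drug dose plus five library-drug doses (not always all listed) in √10 steps. Nuclei were counted on 4× images after 5 days. Relative viability is the ratio of treated-well to vehicle-well nuclei counts, with each value a median of duplicate plates.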

Kobe2602 + Navitoclax = compound: C1=CC(=CC=C1NC(=S)NNC2=C(C=C(C=C2[N+](=O)[O-])C(F)(F)F)[N+](=O)[O-])F [Kobe2602] + CC1(C)CCC(c2ccc(Cl)cc2)=C(CN2CCN(c3ccc(C(=O)NS(=O)(=O)c4ccc(N[C@H](CCN5CCOCC5)CSc5ccccc5)c(S(=O)(=O)C(F)(F)F)c4)cc3)CC2)C1 [Navitoclax] (partner 0.5 µM)
Procedure, shortened: as §1

[2] = compound: COc1cc2nccc(Oc3ccc(NC(=O)C4(C(=O)Nc5ccc(F)cc5)CC4)cc3)c2cc1OC [Cabozantinib] + CCNC(=O)c1noc(-c2cc(C(C)C)c(O)cc2O)c1-c1ccc(CN2CCOCC2)cc1 [Luminespib] (partner 0.01 µM)
Procedure, shortened: as §1

Kobe2602 + Phenformin = compound: C1=CC(=CC=C1NC(=S)NNC2=C(C=C(C=C2[N+](=O)[O-])C(F)(F)F)[N+](=O)[O-])F [Kobe2602] + N=C(N)NC(=N)NCCc1ccccc1 [Phenformin] (partner 250 µM)
Procedure, shortened: as §1

Cell Line | relative viability ([1]; first compound 0.02 µM) | relative viability ([1]; first compound 0.06325 µM) | relative viability ([1]; first compound 0.2 µM) | relative viability ([1]; first compound 0.6325 µM) | relative viability ([1]; first compound 2 µM) | relative viability (Kobe2602 + Navitoclax; first compound 0.2 µM) | relative viability (Kobe2602 + Navitoclax; first compound 0.6325 µM) | relative viability (Kobe2602 + Navitoclax; first compound 2 µM) | relative viability (Kobe2602 + Navitoclax; first compound 6.325 µM) | relative viability (Kobe2602 + Navitoclax; first compound 20 µM) | relative viability ([2]; first compound 0.02 µM) | relative viability ([2]; first compound 0.06325 µM) | relative viability ([2]; first compound 0.2 µM) | relative viability ([2]; first compound 0.6325 µM) | relative viability ([2]; first compound 2 µM) | relative viability (Kobe2602 + Phenformin; first compound 0.2 µM) | relative viability (Kobe2602 + Phenformin; first compound 0.6325 µM) | relative viability (Kobe2602 + Phenformin; first compound 2 µM) | relative viability (Kobe2602 + Phenformin; first compound 6.325 µM) | relative viability (Kobe2602 + Phenformin; first compound 20 µM)
NCI-H1944 | 0.441 | 0.401 | 0.386 | 0.416 | 0.413 | 1.02 | 1.04 | 1.09 | 1.08 | 1.13 | 0.739 | 0.818 | 0.754 | 0.719 | 0.762 | 0.212 | 0.216 | 0.206 | 0.201 | 0.209
NCI-H322M | 0.521 | 0.546 | 0.438 | 0.525 | 0.545 | 1.28 | 1.31 | 1.25 | 1.26 | 0.631 | 0.922 | 1.14 | 0.817 | 0.969 | 0.941 | 0.798 | 0.857 | 0.808 | 0.826 | 0.771
NCI-H2085 | 0.876 | 0.6 | 0.571 | 0.463 | 0.398 | 1.2 | 1.16 | 1.08 | 1.23 | 1.14 | 0.472 | 0.498 | 0.464 | 0.467 | 0.432 | 0.682 | 0.687 | – | 0.684 | 0.708
RERF-LC-KJ | 0.948 | 0.815 | 0.781 | 0.811 | 0.928 | 0.804 | 0.993 | 0.856 | 0.971 | 0.858 | 1.32 | 1.31 | 1.19 | 1.19 | 1.23 | 0.437 | 0.413 | 0.395 | 0.413 | 0.377
NCI-H1355 | 0.433 | 0.462 | 0.441 | 0.421 | 0.435 | 0.887 | 0.94 | 0.945 | 0.901 | 0.902 | 0.806 | 0.852 | 0.682 | 0.738 | 0.871 | 0.479 | 0.479 | 0.476 | 0.415 | 0.433
NCI-H1650 | 0.656 | 0.615 | 0.391 | 0.643 | 0.691 | 1.08 | 1.33 | 0.948 | 1.36 | 1.22 | 0.187 | 0.202 | 0.185 | 0.185 | 0.169 | 0.483 | 0.57 | 0.395 | 0.388 | 0.366
PC-14 | 0.81 | 0.955 | – | 0.755 | 0.685 | 0.978 | 1.04 | 0.982 | 1.03 | 0.971 | 0.198 | 0.139 | – | 0.237 | 0.179 | 0.59 | 0.804 | 0.558 | 0.699 | 0.592
NCI-H1755 | 0.816 | 0.765 | 0.795 | 0.73 | 0.718 | 0.999 | 0.995 | 0.969 | 0.96 | 0.926 | 0.33 | 0.419 | 0.54 | 0.344 | 0.403 | 0.615 | 0.608 | 0.601 | 0.662 | 0.568
NCI-H1651 | 0.915 | 0.86 | 0.845 | 0.774 | 0.82 | 1.11 | 1.08 | 1.18 | 1.03 | 1.02 | 0.881 | 0.879 | 0.908 | 0.733 | 0.946 | 0.415 | 0.37 | 0.356 | 0.333 | 0.414
NCI-H1395 | 0.981 | 1.18 | 1.09 | 1.06 | 0.938 | 1.07 | 1.09 | 1.12 | 1.11 | 1.33 | 0.744 | 0.978 | 0.873 | 0.619 | 0.547 | 0.484 | 0.435 | 0.453 | 0.451 | 0.456
HCC-15 | 0.417 | 0.373 | 0.36 | 0.356 | 0.314 | 0.715 | 0.728 | 0.665 | 0.664 | 0.65 | 0.374 | 0.361 | 0.515 | 0.394 | 0.214 | 0.482 | 0.494 | 0.443 | 0.43 | 0.363
PC-3 [JPC-3] | 0.696 | 0.755 | – | 0.736 | 0.739 | 0.833 | 0.775 | 0.76 | 0.847 | 0.717 | 0.857 | 0.803 | – | 0.825 | 0.777 | 0.489 | 0.508 | 0.525 | 0.464 | 0.502
HOP-62 | 0.413 | 0.389 | 0.4 | 0.376 | 0.349 | 1.01 | 1.03 | 0.986 | 1 | 1.04 | 1.03 | 1 | 0.902 | 0.881 | 0.838 | 0.644 | 0.693 | 0.66 | 0.698 | 0.603
NCI-H460 | 0.133 | 0.196 | 0.134 | 0.159 | 0.174 | 1.12 | 1.16 | 1.19 | 1.1 | 1.06 | 0.0282 | 0.0334 | 0.0334 | 0.0351 | 0.0448 | 0.516 | 0.513 | 0.614 | 0.514 | 0.499
NCI-H1793 | 0.489 | 0.428 | – | 0.432 | 0.341 | 0.528 | 0.445 | 0.415 | 0.413 | 0.459 | 0.591 | 0.168 | 0.144 | 0.202 | 0.155 | 0.33 | 0.398 | 0.399 | 0.333 | 0.446
NCI-H727 | 0.42 | 0.409 | 0.443 | 0.395 | 0.386 | 0.392 | 0.431 | 0.356 | 0.389 | 0.456 | 0.285 | 0.453 | 0.643 | 0.362 | 0.312 | 0.594 | 0.559 | 0.535 | 0.52 | 0.633
